Results taken from patent publication EP4603105A1, “PHARMACEUTICAL COMPOSITION CONTAINING CYCLIC COMPOUND HAVING SELECTIVE KRAS INHIBITORY EFFECT AGAINST HRAS AND NRAS” (CHUGAI SEIYAKU KABUSHIKI KAISHA, priority 2022, dated 2024).
Where a SMILES comes first, the peptide text is derived from it. Bridges are numbered along the chain shown (N, C = ends). [ ]: non-standard residue; d: D form. The star is where a group is joined. hPhe(3,5-F2-4-CF3) = N[C@@H](CCc1cc(F)c(C(F)(F)F)c(F)c1)C(=O)O; hPhe(3-Cl-4-CF3) = N[C@@H](CCc1ccc(C(F)(F)F)c(Cl)c1)C(=O)O; NPrPhe(4-CF3) = CCCN[C@@H](Cc1ccc(C(F)(F)F)cc1)C(=O)O; NMeGly(cPent) = CN[C@H](C(=O)O)C1CCCC1; Pro(4,4-F2) = O=C(O)[C@@H]1CC(F)(F)CN1; NMeD = CN[C@@H](CC(=O)O)C(=O)O; Ac4c(3-oxa) = NC1(C(=O)O)COC1; NMeL = CN[C@@H](CC(C)C)C(=O)O; Morpholide = C1CN(*)CCO1; Ac5c = NC1(C(=O)O)CCCC1; Aze = O=C(O)[C@@H]1CCN1; Ac4c = NC1(C(=O)O)CCC1; Sar = CNCC(=O)O

Columns and labels:
[1] = biological target: HRAS wild-type protein (Homo sapiens, UniProt P01112); experiment: Binding to HRAS by surface plasmon resonance (SPR), KD and KD ratio to KRAS
Summary of the method: (§1)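 Measured at 30°C: SPR with GDP-loaded, E. coli-expressed biotin-Avi RAS captured (~100–300 RU), ascending 75 s compound injections, HBS pH 7.4 with GDP, MgCl2, 4% DMSO. KD from 1:1 fit.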

[2] = test system: human lung cancer strain NCI-H441; assay type: cell-based
Summary of the method: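 Signal came from […] measured per well once the reagent was added. Beforehand, cells were cultured at 37°C and 5% carbon dioxide on a compound series serially diluted in dimethyl sulfoxide.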

[3] = biological target: GDP-bound NRAS wild-type protein (Homo sapiens, UniProt P01111); experiment: Binding to NRAS by surface plasmon resonance (SPR), KD and KD ratio to KRAS
Summary of the method: as §1

[4] = ratio of KD for HRAS wild-type protein to KD for KRAS
[5] = ratio of KD for GDP-bound NRAS wild-type protein to KD for KRAS
[6] = ratio of KD value for HRAS wild-type protein to KD value for KRAS (SPR)
[7] = ratio of KD value for GDP-bound NRAS wild-type protein to KD value for KRAS (SPR)

Chain of GDP-bound NRAS wild-type protein (P01111 whole entry): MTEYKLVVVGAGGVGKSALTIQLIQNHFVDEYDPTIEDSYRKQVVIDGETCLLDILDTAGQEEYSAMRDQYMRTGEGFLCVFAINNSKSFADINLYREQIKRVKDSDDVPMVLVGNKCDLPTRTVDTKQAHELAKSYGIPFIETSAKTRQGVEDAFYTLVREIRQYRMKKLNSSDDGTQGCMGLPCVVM
Chain of HRAS wild-type protein (P01112 whole entry): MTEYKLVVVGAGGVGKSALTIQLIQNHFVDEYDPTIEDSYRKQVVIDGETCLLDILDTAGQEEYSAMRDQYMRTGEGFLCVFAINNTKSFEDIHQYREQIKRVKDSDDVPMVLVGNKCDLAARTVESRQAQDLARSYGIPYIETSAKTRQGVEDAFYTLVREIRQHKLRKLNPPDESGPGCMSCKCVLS

| SMILES | HRAS /KRAS [1, 4] | IC50 [2] [nM] | NRAS /KRAS [3, 5] | HRAS /KRAS [1, 6] | NRAS /KRAS [3, 7] | HRAS /KRAS ([1]; ratio of the KD value with respect to HRAS wild-type protein to the KD value with respect to KRAS) | NRAS /KRAS ([3]; ratio of the KD value with respect to GDP-bound NRAS wild-type protein to the KD value with respect to KRAS) |
| --- | --- | --- | --- | --- | --- | --- | --- |
| CC[C@H](C)[C@@H]1NC(=O)[C@H](CC(C)C)N(C)C(=O)C[C@@H](C(=O)N2CCOCC2)N(C)C(=O)[C@H](C2CCCC2)N(C)C(=O)C2(CCC2)NC(=O)[C@@H]2[C@H](OC)CCN2C(=O)[C@H](CCc2cc(F)c(C(F)(F)F)c(F)c2)NC(=O)CN(C)C(=O)[C@H](Cc2ccc(C(F)(F)F)cc2)N2CCCCC[C@@H](C2=O)N(C)C(=O)CN(C)C1=O [PP1085] | A (a compound having 10 or more and less than 20 is denoted as A) | 590 | A (a compound having 10 or more and less than 20 is denoted as A) | – | – | – | – |
| CCCN1C(=O)CN(C)C(=O)CNC(=O)[C@H]([C@@H](C)CC)NC(=O)[C@H](CC(C)C)N(C)C(=O)C[C@@H](C(=O)N2CCOCC2)NC(=O)[C@H](C2CCCC2)N(C)C(=O)C2(CCC2)NC(=O)[C@@H]2CC(F)(F)CN2C(=O)[C@H](CCc2ccc(C(F)(F)F)c(Cl)c2)NC(=O)CN(C)C(=O)[C@@H]1Cc1ccc(C(F)(F)F)cc1 [PP0328] ([NMeL]IG[Sar][NPrPhe(4-CF3)][Sar][hPhe(3-Cl-4-CF3)][Pro(4,4-F2)][Ac4c][NMeGly(cPent)]D-Morpholide; lactam N-11) | B (a compound having 3 or more and less than 10 is denoted as B) | 243 | B (a compound having 3 or more and less than 10 is denoted as B) | – | – | – | – |
| CCO[C@@H]1C[C@H]2C(=O)NC3(CCC3)C(=O)N(C)[C@@H](C3CCCC3)C(=O)N(C)[C@H](C(=O)N(C)C)CC(=O)N(C)[C@@H](CC3CCCC3)C(=O)N[C@@H]([C@@H](C)CC)C(=O)N(C)CC(=O)N(C)[C@H]3C/C=C\CCN(C3=O)[C@@H](Cc3ccc(C)cc3)C(=O)N(C)CC(=O)N[C@@H](CCc3cc(C)c(C(F)F)c(F)c3)C(=O)N2C1 [PP2676] | A (a compound having 10 or more and less than 20 is denoted as A) | 60.8 | A (a compound having 10 or more and less than 20 is denoted as A) | – | – | – | – |
| CC[C@H](C)[C@@H]1NC(=O)[C@@H]2CCCc3ccc(cc3)C[C@@H](C(=O)N(C)CC(=O)N[C@@H](CCc3ccc(C(F)(F)F)c(OC)c3)C(=O)N3CC4(CC4)C[C@H]3C(=O)NC3(CC(C)(C)C3)C(=O)N(C)[C@@H](C3CCCC3)C(=O)N(C)[C@H](C(=O)N(C)CC)CC(=O)N2C)N2CC/C=C\C[C@@H](C2=O)N(C)C(=O)CN(C)C1=O [PP3087] | B (a compound having 3 or more and less than 10 is denoted as B) | 6.9 | A (a compound having 10 or more and less than 20 is denoted as A) | – | – | – | – |
| CCO[C@@H]1C[C@H]2C(=O)NC3(CCC3)C(=O)N(C)[C@@H](C3CCCC3)C(=O)N(CC)[C@H](C(=O)N3CCOCC3)CC(=O)N(C)[C@@H](CCc3ccccc3)C(=O)N[C@@H]([C@@H](C)CC)C(=O)N(C)CC(=O)N(C)[C@H]3CCCCCN(C3=O)[C@@H](Cc3ccc(C(F)(F)F)cc3)C(=O)N(C)CC(=O)N[C@@H](CCc3cc(F)c(C(F)(F)F)c(F)c3)C(=O)N2C1 [PP0953] | A (a compound having 10 or more and less than 20 is denoted as A) | 1610 | A (a compound having 10 or more and less than 20 is denoted as A) | – | – | – | – |
| CCCN(C)C(=O)[C@@H]1CC(=O)N(C)[C@@H](CC)C(=O)N[C@@H]([C@@H](C)CC)C(=O)N(C)CC(=O)N(C)[C@H]2C/C=C\CCN(C2=O)[C@@H](Cc2ccc(C(F)(F)F)cc2)C(=O)N(C)CC(=O)N[C@@H](CCc2cc(F)c(C(F)(F)F)c(F)c2)C(=O)N2C[C@H](OCC)C[C@H]2C(=O)NC2(CCC2)C(=O)N(C)[C@@H](C2CCCC2)C(=O)N1C [PP1699] | – | 2.5 | – | A (a compound having 10 or more and less than 20 is denoted as A) | A (a compound having 10 or more and less than 20 is denoted as A) | – | – |
| CCO[C@@H]1C[C@H]2C(=O)N[C@@]3(C)CCCCCCC[C@@H](C(=O)N[C@@H]([C@@H](C)CC)C(=O)N(C)CC(=O)N(C)[C@H]4CCCCN(C4=O)[C@@H](Cc4ccc(C(F)(F)F)cc4)C(=O)N(C)CC(=O)N[C@@H](CCc4cc(F)c(C(F)(F)F)c(F)c4)C(=O)N2C1)N(C)C(=O)C[C@@H](C(=O)N1CCOCC1)N(C)C(=O)[C@H](C1CCCC1)N(C)C3=O [PP0993] | B (a compound having 3 or more and less than 10 is denoted as B) | 332 | B (a compound having 3 or more and less than 10 is denoted as B) | – | – | – | – |
| CCO[C@@H]1C[C@H]2C(=O)NC3(CC(C)(C)C3)C(=O)N(C)[C@@H](C3CCCC3)C(=O)N(C)[C@H](C(=O)N(C)C)CC(=O)N(C)[C@H]3CCCC/C=C/c4ccc(cc4)C[C@@H](C(=O)N(C)CC(=O)N[C@@H](CCc4cc(F)c(C(F)(F)F)c(F)c4)C(=O)N2C1)N1CC/C=C\C[C@@H](C1=O)N(C)C(=O)CN(C)C(=O)[C@H]([C@@H](C)CC)NC3=O [PP1831] | – | 3 | – | A (a compound having 10 or more and less than 20 is denoted as A) | A (a compound having 10 or more and less than 20 is denoted as A) | – | – |
| CCCN1C(=O)[C@@H]2CCN2C(=O)CN(C)C(=O)[C@H]([C@@H](C)CC)NC(=O)[C@H](CC(C)C)N(C)C(=O)C[C@@H](C(=O)N(C)C)NC(=O)[C@H](C2CCCC2)N(C)C(=O)C2(CCCC2)NC(=O)[C@@H]2CC(F)(F)CN2C(=O)[C@H](CCc2ccc(C(F)(F)F)c(Cl)c2)NC(=O)CN(C)C(=O)[C@@H]1Cc1ccc(C(F)(F)F)cc1 [PP0387] ([NMeL]I[Sar][Aze][NPrPhe(4-CF3)][Sar][hPhe(3-Cl-4-CF3)][Pro(4,4-F2)][Ac5c][NMeGly(cPent)]D-NMe2; lactam N-11) | – | 20 | – | – | – | B (a compound having 3 or more and less than 10 is denoted as B) | C (A compound having a KD ratio of 0.1 or more and less than 3 is denoted as C) |
| CCCN1C(=O)CN(C)C(=O)CN(C)C(=O)[C@H]([C@@H](C)CC)NC(=O)[C@H](CC(C)C)N(C)C(=O)C[C@@H](C(=O)N2CCOCC2)N(C)C(=O)[C@H](C2CCCC2)N(C)C(=O)C2(COC2)NC(=O)[C@@H]2CCCN2C(=O)[C@H](CCc2cc(F)c(C(F)(F)F)c(F)c2)NC(=O)CN(C)C(=O)[C@@H]1Cc1ccc(C(F)(F)F)cc1 [PP0765] ([NMeL]I[Sar][Sar][NPrPhe(4-CF3)][Sar][hPhe(3,5-F2-4-CF3)]P[Ac4c(3-oxa)][NMeGly(cPent)][NMeD]-Morpholide; lactam N-11) | C (A compound having a KD ratio of 0.1 or more and less than 3 is denoted as C) | 123 | B (a compound having 3 or more and less than 10 is denoted as B) | – | – | – | – |
| C#CC[C@H]1C(=O)N[C@@H]([C@@H](C)CC)C(=O)N(C)CC(=O)N(C)[C@H]2C/C=C\CCN(C2=O)[C@@H](Cc2ccc(C(F)(F)F)cc2)C(=O)N(C)CC(=O)N[C@@H](CCc2cc(F)c(C(F)(F)F)c(F)c2)C(=O)N2C[C@H](OCC)C[C@H]2C(=O)NC2(CCC2)C(=O)N(C)[C@@H](C2CCCC2)C(=O)N(C)[C@H](C(=O)N(C)C)CC(=O)N1C [PP1115] | A (a compound having 10 or more and less than 20 is denoted as A) | 29 | A (a compound having 10 or more and less than 20 is denoted as A) | – | – | – | – |
| CC[C@H](C)[C@@H]1NC(=O)[C@H](CC(C)C)N(C)C(=O)C[C@@H](C(=O)N2CCOCC2)N(C)C(=O)[C@H](C2CCCC2)N(C)C(=O)C2(CCC2)NC(=O)[C@@H]2[C@H](OC)CCN2C(=O)[C@H](CCc2cc(F)c(C(F)(F)F)c(F)c2)NC(=O)CN(C)C(=O)[C@H](Cc2ccc(C(F)(F)F)cc2)N2CCCC[C@@H](C2=O)N(C)C(=O)CN(C)C1=O [PP1084] | B (a compound having 3 or more and less than 10 is denoted as B) | 83.9 | C (A compound having a KD ratio of 0.1 or more and less than 3 is denoted as C) | – | – | – | – |
| CCC[C@H]1C(=O)N[C@@H]([C@@H](C)CC)C(=O)N(C)CC(=O)N(C)[C@H]2C/C=C\CCN(C2=O)[C@@H](Cc2ccc(C(F)(F)F)cc2)C(=O)N(C)CC(=O)N[C@@H](CCc2ccc3sc(C)c(C)c3c2)C(=O)N2C[C@H](OCC)C[C@H]2C(=O)NC2(CC(C)(C)C2)C(=O)N(C)[C@@H](C(CC)CC)C(=O)N(C)[C@H](C(=O)N(C)C)CC(=O)N1C [PP2900] | A (a compound having 10 or more and less than 20 is denoted as A) | 14.5 | AA (a compound having 20 or more is denoted as AA) | – | – | – | – |
| CCCN(C)C(=O)[C@@H]1CC(=O)N(C)[C@@H](COC)C(=O)N[C@@H]([C@@H](C)CC)C(=O)N(C)CC(=O)N(C)[C@H]2C/C=C\CCN(C2=O)[C@@H](Cc2ccc(C(F)(F)F)cc2)C(=O)N(C)CC(=O)N[C@@H](CCc2cc(F)c(C(F)(F)F)c(F)c2)C(=O)N2CCC[C@H]2C(=O)NC2(CC(C)(C)C2)C(=O)N(C)[C@@H](C2CCCC2)C(=O)N1C [PP1729] | – | 20.6 | – | A (a compound having 10 or more and less than 20 is denoted as A) | AA (a compound having 20 or more is denoted as AA) | – | – |
